Experimental data: ChEMBL document CHEMBL4411321, “Discovery of Potent, Selective, and Orally Bioavailable Estrogen-Related Receptor-γ Inverse Agonists To Restore the Sodium Iodide Symporter Function in Anaplastic Thyroid Cancer” (J Med Chem, 2019)

Columns and labels:
[1] = target: T1, Estrogen-related receptor gamma (Homo sapiens, UniProt P62508)
T1 sequence (P62508 whole entry): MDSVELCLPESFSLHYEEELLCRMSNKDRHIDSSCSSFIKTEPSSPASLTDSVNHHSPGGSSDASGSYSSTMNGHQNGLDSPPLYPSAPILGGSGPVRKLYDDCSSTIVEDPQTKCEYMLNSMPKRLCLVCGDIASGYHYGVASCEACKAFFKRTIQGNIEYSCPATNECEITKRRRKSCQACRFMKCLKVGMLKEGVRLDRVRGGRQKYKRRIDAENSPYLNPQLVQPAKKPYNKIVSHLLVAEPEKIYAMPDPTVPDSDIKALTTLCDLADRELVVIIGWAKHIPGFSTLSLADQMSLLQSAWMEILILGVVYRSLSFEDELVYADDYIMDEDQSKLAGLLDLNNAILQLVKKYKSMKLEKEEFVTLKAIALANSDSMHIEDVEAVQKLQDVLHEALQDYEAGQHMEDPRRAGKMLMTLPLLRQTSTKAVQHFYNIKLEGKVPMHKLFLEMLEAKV

[2] = target: T2, Steroid hormone receptor ERR1 (Homo sapiens, UniProt P11474)
T2 sequence (P11474 whole entry): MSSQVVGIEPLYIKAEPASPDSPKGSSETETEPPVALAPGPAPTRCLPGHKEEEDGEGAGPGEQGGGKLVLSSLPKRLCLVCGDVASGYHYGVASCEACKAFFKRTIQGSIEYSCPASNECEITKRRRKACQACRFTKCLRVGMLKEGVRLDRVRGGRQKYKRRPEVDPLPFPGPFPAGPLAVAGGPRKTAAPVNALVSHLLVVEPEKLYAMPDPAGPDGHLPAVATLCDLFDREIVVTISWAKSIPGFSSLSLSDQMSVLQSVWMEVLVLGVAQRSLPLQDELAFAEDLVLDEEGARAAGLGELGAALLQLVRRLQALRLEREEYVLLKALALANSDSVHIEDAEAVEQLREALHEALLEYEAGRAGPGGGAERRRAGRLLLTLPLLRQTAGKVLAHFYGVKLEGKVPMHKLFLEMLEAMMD

Estrogen receptor = target: T3, Estrogen receptor (Homo sapiens, UniProt P03372)
T3 sequence (P03372 whole entry): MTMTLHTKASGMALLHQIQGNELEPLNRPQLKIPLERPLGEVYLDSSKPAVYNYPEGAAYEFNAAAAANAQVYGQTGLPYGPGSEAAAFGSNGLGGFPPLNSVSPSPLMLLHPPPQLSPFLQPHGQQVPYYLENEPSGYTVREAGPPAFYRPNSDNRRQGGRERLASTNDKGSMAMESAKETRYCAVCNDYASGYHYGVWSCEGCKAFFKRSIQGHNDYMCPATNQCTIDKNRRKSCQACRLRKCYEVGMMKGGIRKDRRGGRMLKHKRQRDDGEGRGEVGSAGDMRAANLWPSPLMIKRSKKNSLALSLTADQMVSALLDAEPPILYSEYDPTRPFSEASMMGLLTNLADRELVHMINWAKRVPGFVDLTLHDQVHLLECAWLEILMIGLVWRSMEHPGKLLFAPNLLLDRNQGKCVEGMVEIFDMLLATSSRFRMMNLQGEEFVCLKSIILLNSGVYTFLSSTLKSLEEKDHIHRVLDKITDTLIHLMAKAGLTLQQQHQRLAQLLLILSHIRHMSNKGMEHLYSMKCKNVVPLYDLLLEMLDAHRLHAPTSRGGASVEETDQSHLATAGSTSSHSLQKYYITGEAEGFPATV

[3] = target: T4, Steroid hormone receptor ERR2 (Homo sapiens, UniProt O95718); assay: Binding affinity to ERRbeta (unknown origin) using fluorescein-conjugated coactivator PGC-1alpha incubated for 1 hr by TR-FRET assay
T4 sequence (O95718 whole entry): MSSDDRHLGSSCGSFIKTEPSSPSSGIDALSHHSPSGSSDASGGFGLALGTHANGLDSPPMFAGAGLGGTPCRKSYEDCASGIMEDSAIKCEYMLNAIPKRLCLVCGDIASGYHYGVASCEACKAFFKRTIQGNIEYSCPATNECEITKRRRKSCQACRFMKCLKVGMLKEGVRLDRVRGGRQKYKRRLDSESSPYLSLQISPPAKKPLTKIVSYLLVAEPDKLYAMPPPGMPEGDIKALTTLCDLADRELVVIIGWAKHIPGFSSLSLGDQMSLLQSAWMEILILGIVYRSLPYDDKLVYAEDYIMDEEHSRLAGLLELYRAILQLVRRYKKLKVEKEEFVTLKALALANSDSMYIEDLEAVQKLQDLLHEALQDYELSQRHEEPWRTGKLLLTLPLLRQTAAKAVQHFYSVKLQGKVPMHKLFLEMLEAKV

CYP1A2 = target: T5, CYP1A2 (Homo sapiens, UniProt P05177); assay: Inhibition of CYP1A2 in human liver microsomes assessed as reduction in phenacetin O-deethylase activity at 10 uM preincubated for 5 mins followed by NADPH addition and measured after 15 mins by LC-MS/MS analysis relative to control; assay type: ADME; conditions: probe phenacetin (O-deethylation)
T5 sequence (P05177 whole entry): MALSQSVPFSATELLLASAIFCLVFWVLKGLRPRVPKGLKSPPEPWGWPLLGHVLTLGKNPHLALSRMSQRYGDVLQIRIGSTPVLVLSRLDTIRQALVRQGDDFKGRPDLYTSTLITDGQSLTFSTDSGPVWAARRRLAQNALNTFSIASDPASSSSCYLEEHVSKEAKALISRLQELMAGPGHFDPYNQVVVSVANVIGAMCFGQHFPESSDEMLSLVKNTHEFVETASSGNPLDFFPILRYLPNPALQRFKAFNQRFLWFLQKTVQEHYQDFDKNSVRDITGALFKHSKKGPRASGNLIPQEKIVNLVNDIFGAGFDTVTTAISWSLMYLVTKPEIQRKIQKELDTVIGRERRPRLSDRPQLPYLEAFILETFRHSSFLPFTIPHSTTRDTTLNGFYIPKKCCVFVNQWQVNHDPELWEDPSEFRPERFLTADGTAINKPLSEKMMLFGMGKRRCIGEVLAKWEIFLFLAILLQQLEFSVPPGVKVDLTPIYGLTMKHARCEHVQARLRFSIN

CYP2C9 = CYP2C9 (Homo sapiens, UniProt P11712); assay: Inhibition of CYP2C9 in human liver microsomes assessed as reduction in tolbutamide 4-hydroxylase activity at 10 uM preincubated for 5 mins followed by NADPH addition and measured after 15 mins by LC-MS/MS analysis relative to control; assay type: ADME; conditions: probe tolbutamide (4-hydroxylation)
CYP2C19 = CYP2C19 (Homo sapiens, UniProt P33261); assay: Inhibition of CYP2C19 in human liver microsomes assessed as reduction in S-mephenytoin 4-hydroxylase activity at 10 uM preincubated for 5 mins followed by NADPH addition and measured after 15 mins by LC-MS/MS analysis relative to control; assay type: ADME; conditions: probe S-mephenytoin (4-hydroxylation)
CYP2D6 = CYP2D6 (Homo sapiens, UniProt P10635); assay: Inhibition of CYP2D6 in human liver microsomes assessed as reduction in dextromethorphan O-demethylase activity at 10 uM preincubated for 5 mins followed by NADPH addition and measured after 15 mins by LC-MS/MS analysis relative to control; assay type: ADME; conditions: probe dextromethorphan (O-demethylation)
CYP3A4 = CYP3A4 (Homo sapiens, UniProt P08684); assay: Inhibition of CYP3A4 in human liver microsomes assessed as reduction in midazolam 1-hydroxylase activity at 10 uM preincubated for 5 mins followed by NADPH addition and measured after 15 mins by LC-MS/MS analysis relative to control; assay type: ADME; conditions: probe midazolam (1-hydroxylation)
[4] = Metabolic stability in human liver microsomes assessed as compound remaining at 1 uM after 30 mins in presence of NADPH regeneration system by LC-MS/MS analysis; assay type: ADME, Microsome; conditions: read-out: Stability
[5] = Metabolic stability in dog liver microsomes assessed as compound remaining at 1 uM after 30 mins in presence of NADPH regeneration system by LC-MS/MS analysis; assay type: ADME, Canis lupus familiaris, Microsome; conditions: read-out: Stability
[6] = Metabolic stability in rat liver microsomes assessed as compound remaining at 1 uM after 30 mins in presence of NADPH regeneration system by LC-MS/MS analysis; assay type: ADME, Microsome; conditions: read-out: Stability
[7] = Metabolic stability in mouse liver microsomes assessed as compound remaining at 1 uM after 30 mins in presence of NADPH regeneration system by LC-MS/MS analysis; assay type: ADME, Microsome; conditions: read-out: Stability

Sequence of CYP2C19 (P33261 whole entry): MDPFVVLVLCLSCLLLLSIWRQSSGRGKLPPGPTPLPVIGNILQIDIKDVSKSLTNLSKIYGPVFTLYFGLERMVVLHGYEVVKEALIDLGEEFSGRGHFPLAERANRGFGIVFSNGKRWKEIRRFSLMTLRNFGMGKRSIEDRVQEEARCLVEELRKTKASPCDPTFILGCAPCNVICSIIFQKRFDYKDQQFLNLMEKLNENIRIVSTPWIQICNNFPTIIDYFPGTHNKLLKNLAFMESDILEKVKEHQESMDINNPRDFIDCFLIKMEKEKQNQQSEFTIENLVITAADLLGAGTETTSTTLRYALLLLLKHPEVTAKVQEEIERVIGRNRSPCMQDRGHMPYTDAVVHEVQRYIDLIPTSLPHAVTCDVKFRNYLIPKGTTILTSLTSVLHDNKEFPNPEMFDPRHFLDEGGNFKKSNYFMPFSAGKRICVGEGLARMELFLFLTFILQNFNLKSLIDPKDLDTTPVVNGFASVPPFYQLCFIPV
Sequence of CYP2D6 (P10635 whole entry): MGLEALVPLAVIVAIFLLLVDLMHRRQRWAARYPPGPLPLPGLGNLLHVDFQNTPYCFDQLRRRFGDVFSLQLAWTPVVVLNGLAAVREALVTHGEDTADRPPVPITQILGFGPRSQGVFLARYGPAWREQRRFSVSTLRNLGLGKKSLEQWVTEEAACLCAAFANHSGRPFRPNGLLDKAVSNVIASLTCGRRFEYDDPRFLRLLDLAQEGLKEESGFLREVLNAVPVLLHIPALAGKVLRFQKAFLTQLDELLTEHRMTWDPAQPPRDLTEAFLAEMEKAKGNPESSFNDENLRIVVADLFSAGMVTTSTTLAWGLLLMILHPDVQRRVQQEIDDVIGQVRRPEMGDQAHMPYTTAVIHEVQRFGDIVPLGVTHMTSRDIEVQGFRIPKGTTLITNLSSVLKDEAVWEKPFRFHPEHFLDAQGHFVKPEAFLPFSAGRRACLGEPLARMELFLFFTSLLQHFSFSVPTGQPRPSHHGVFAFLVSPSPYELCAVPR
Sequence of CYP2C9 (P11712 whole entry): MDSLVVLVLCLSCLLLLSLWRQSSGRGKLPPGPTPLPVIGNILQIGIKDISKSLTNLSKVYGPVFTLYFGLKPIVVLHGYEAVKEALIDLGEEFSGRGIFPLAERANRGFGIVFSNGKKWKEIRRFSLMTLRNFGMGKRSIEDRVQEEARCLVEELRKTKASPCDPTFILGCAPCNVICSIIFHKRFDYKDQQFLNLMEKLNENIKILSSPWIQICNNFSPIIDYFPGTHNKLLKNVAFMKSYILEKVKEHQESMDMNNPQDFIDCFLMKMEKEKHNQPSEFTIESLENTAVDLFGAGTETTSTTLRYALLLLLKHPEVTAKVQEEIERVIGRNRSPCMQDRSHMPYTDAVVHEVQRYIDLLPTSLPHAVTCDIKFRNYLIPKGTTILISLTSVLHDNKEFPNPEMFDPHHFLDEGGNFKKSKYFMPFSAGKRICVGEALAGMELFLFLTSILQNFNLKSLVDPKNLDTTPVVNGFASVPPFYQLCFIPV
Sequence of CYP3A4 (P08684 whole entry): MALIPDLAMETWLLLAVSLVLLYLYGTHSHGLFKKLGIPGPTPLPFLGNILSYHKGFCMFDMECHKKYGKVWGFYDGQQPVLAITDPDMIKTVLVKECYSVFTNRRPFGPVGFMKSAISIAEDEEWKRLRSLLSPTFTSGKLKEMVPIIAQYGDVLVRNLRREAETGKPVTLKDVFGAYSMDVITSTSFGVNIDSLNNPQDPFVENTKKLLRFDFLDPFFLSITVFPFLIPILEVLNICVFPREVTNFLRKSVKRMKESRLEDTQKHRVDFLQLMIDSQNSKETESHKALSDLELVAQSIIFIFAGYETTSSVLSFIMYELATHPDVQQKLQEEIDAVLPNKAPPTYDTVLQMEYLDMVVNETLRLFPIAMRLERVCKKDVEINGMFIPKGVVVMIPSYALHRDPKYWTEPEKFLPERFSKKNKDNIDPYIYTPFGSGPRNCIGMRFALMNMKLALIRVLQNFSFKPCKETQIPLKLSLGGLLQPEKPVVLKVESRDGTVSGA

OCCC/C(=C(\c1ccc(O)cc1)c1ccc(N2CCN(C3CCCC3)CC2)cc1)c1ccccc1
IC50 [1]: 0.115 µM

CN1CCN(c2ccc(/C(=C(/CCCO)c3ccccc3)c3ccc(Br)cc3)cc2)CC1
IC50 [2]: > 10 µM
IC50 (Estrogen receptor): > 10 µM

CC(C)N1CCN(c2ccc(/C(=C(/CCCO)c3ccccc3)c3ccc(OS(=O)(=O)C(F)(F)F)cc3)cc2)CC1
IC50 [1]: 3.02 µM

CC(C)N1CCN(c2ccc(/C(=C(/CCCO)c3ccccc3)c3ccc(NC(=N)N)cc3)cc2)CC1
IC50 [1]: > 10 µM

CC(C)N1CCN(c2ccc(/C(=C(/CCCO)c3ccccc3)c3cccc(Br)c3)cc2)CC1
IC50 [3]: 1.44 µM
inhibition at 0.25 h, 10 µM (CYP1A2): 2.5%
inhibition at 0.25 h, 10 µM (CYP2C9): 27%
inhibition at 0.25 h, 10 µM (CYP2C19): 56.1%
inhibition at 0.25 h, 10 µM (CYP2D6): 70.4%
inhibition at 0.25 h, 10 µM (CYP3A4): 60.1%
remaining at 0.5 h, 1 µM [4]: 53.6%
remaining at 0.5 h, 1 µM [5]: 68.4%
remaining at 0.5 h, 1 µM [6]: 53.7%
remaining at 0.5 h, 1 µM [7]: 31%
IC50 [2]: > 10 µM
IC50 (Estrogen receptor): > 10 µM

N=C(N)N1CCN(c2ccc(/C(=C(/CCCO)c3ccccc3)c3ccc(O)cc3)cc2)CC1
IC50 [1]: 0.511 µM

CC(C)N1CCN(c2cccc(/C(=C(/CCCO)c3ccccc3)c3ccc(O)cc3)c2)CC1
IC50 [1]: > 10 µM

CC(=O)Nc1ccc(/C(=C(\CCCO)c2ccccc2)c2ccc(N3CCN(C(C)C)CC3)cc2)cc1
IC50 [1]: 4.33 µM

OCCC/C(=C(\c1ccc(O)cc1)c1ccc(N2CCNCC2)cc1)c1ccccc1
IC50 [3]: 4.54 µM
IC50 [2]: > 10 µM
IC50 (Estrogen receptor): 2.5 µM

CCN1CCN(c2ccc(/C(=C(/CCCO)c3ccccc3)c3ccc(O)cc3)cc2)CC1
IC50 [1]: 0.05 µM
IC50 [2]: > 10 µM
IC50 (Estrogen receptor): 1.14 µM

CN1CCN(c2ccc(/C(=C(/CCCO)c3ccccc3)c3ccc(N)cc3)cc2)CC1
IC50 [1]: 0.14 µM

CN1CCN(c2ccc(/C(=C(/CCCOC(=O)C(C)(C)C)c3ccccc3)c3ccc(OC(=O)C(C)(C)C)cc3)cc2)CC1
IC50 [1]: > 10 µM
